# Biological target: T1, IdeC (Immunoglobulin G degrading enzyme of S. canis) (Streptococcus canis, UniProt A0A3P5YAY8)
# T1 construct: gene ide; full-length construct 30-339 as printed for the C94S crystal form), His6 tag from pQE30, E. coli M15 pREP, Ni-TED purified, ~35 kDa, mainly monomer; printed PDB entries are of C94S forms
# Test: feline and canine IgG cleavage, SDS-PAGE
# Format: biochemical
# Settings: 2.5 uM inhibitor, 30 min preincubation at room temperature; IgG 37 C 2.5 h; cysteine protease inhibitor, irreversible (general statement)
# T1 sequence (A0A3P5YAY8 entry or part of it): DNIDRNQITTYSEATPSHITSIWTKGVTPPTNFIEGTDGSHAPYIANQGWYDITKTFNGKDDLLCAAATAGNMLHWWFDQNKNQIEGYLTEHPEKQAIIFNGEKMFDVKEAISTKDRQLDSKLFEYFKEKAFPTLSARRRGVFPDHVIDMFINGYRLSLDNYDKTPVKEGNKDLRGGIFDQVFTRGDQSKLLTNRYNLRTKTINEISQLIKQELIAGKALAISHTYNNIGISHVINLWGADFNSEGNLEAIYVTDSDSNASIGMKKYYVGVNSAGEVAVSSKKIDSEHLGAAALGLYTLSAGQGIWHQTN
smiles,measurement,value
CC(C)C[C@H](NC(=O)[C@@H]1O[C@H]1C(=O)O)C(=O)NCCCCN=C(N)N [E-64],"feline and canine IgG cleavage, SDS-PAGE",the cysteine protease inhibitors Iodo and E-64 resulted in weaker cleavage product bands
